Measured values taken from paper PMC5234074 (2017).

Columns and labels:
[1] = test system: EC-100 (thiC 1-100 nascent transcript) (RNA, riboswitch) UAAUUUCUUGUCGGAGUGCCUUAACUGGCUGAGACCGUUUAUUCGGGAUCCGCGGAACCUGAUCAGGCUAAUACCUGCGAAGGGAACAAGAGUUAAUCUG; experiment: RNase H cleavage of stalled elongation complex, P1 probe; conditions: 20 mM MgCl2, 20 mM NaCl (transcription); 20 mM MgCl2, 100 mM KCl (RNase H step); Tris-HCl pH 8.0, 37 °C; 10 μM TPP; cleavage ratio 1.3; RNAP bound
[2] = test system: 143 nt thiC transcript (without RNAP) (RNA, riboswitch) UAAUUUCUUGUCGGAGUGCCUUAACUGGCUGAGACCGUUUAUUCGGGAUCCGCGGAACCUGAUCAGGCUAAUACCUGCGAAGGGAACAAGAGUUAAUCUGCUAUCGCAUCGCCCCUGCGGCGAUCGUCUCUUGCUUCAUCCGU; experiment: RNase H cleavage of free transcript; conditions: 20 mM MgCl2, 20 mM NaCl (transcription); 20 mM MgCl2, 100 mM KCl (RNase H step); Tris-HCl pH 8.0, 37 °C; 10 μM TPP; cleavage ratio higher than 158 nt transcript
[3] = test system: EC-207 (thiC 1-207 nascent transcript) (RNA, riboswitch) UAAUUUCUUGUCGGAGUGCCUUAACUGGCUGAGACCGUUUAUUCGGGAUCCGCGGAACCUGAUCAGGCUAAUACCUGCGAAGGGAACAAGAGUUAAUCUGCUAUCGCAUCGCCCCUGCGGCGAUCGUCUCUUGCUUCAUCCGUCGUCUGACAAGCCACGUCCUUAACUUUUUGGAAUGAGCUAUGUCUGCAACAAAACUGACCCGCC; experiment: RNase H cleavage of stalled elongation complex, P1 probe; conditions: 20 mM MgCl2, 20 mM NaCl (transcription); 20 mM MgCl2, 100 mM KCl (RNase H step); Tris-HCl pH 8.0, 37 °C; 10 μM TPP; RNAP bound; sensing partially recovered
[4] = test system: EC-108 (thiC 1-108 nascent transcript) (RNA, riboswitch) UAAUUUCUUGUCGGAGUGCCUUAACUGGCUGAGACCGUUUAUUCGGGAUCCGCGGAACCUGAUCAGGCUAAUACCUGCGAAGGGAACAAGAGUUAAUCUGCUAUCGCA; experiment: as above; conditions: 20 mM MgCl2, 20 mM NaCl (transcription); 20 mM MgCl2, 100 mM KCl (RNase H step); Tris-HCl pH 8.0, 37 °C; 10 μM TPP; cleavage ratio 6.7; RNAP bound
[5] = test system: EC-197 (thiC 1-197 nascent transcript) (RNA, riboswitch) UAAUUUCUUGUCGGAGUGCCUUAACUGGCUGAGACCGUUUAUUCGGGAUCCGCGGAACCUGAUCAGGCUAAUACCUGCGAAGGGAACAAGAGUUAAUCUGCUAUCGCAUCGCCCCUGCGGCGAUCGUCUCUUGCUUCAUCCGUCGUCUGACAAGCCACGUCCUUAACUUUUUGGAAUGAGCUAUGUCUGCAACAAAA; experiment: as above; conditions: 20 mM MgCl2, 20 mM NaCl (transcription); 20 mM MgCl2, 100 mM KCl (RNase H step); Tris-HCl pH 8.0, 37 °C; 10 μM TPP; RNAP bound; sensing partially recovered
[6] = test system: 158 nt thiC transcript (without RNAP) (RNA, riboswitch) UAAUUUCUUGUCGGAGUGCCUUAACUGGCUGAGACCGUUUAUUCGGGAUCCGCGGAACCUGAUCAGGCUAAUACCUGCGAAGGGAACAAGAGUUAAUCUGCUAUCGCAUCGCCCCUGCGGCGAUCGUCUCUUGCUUCAUCCGUCGUCUGACAAGCCAC; experiment: RNase H cleavage of free transcript; conditions: 20 mM MgCl2, 20 mM NaCl (transcription); 20 mM MgCl2, 100 mM KCl (RNase H step); Tris-HCl pH 8.0, 37 °C; 10 μM TPP; cleavage ratio 3.4; less efficient than EC-158

binding [1]: weak | binding [2]: yes | binding [3]: yes | binding [4]: yes | binding [5]: yes | binding [6]: yes
SMILES: Cc1ncc(C[n+]2csc(CCOP(=O)(O)OP(=O)(O)O)c2C)c(N)n1
